The record followed here is ChEMBL document CHEMBL1201862, “PubChem BioAssay data set” (2004).

Test [1] can be described thus: blockers of CRF-binding protein–CRF-R2 complex – cell-based, uHTS hits, 384-well, dose response (AID 651639). It is filed as functional, Homo sapiens. The settings on record: read-out: IC50_Mean.
Test [2] addresses T1, Corticotropin-releasing factor receptor 2/Corticotropin-releasing factor-binding protein (Homo sapiens, UniProt P24387+Q13324).
T1 sequence (Q13324 whole entry): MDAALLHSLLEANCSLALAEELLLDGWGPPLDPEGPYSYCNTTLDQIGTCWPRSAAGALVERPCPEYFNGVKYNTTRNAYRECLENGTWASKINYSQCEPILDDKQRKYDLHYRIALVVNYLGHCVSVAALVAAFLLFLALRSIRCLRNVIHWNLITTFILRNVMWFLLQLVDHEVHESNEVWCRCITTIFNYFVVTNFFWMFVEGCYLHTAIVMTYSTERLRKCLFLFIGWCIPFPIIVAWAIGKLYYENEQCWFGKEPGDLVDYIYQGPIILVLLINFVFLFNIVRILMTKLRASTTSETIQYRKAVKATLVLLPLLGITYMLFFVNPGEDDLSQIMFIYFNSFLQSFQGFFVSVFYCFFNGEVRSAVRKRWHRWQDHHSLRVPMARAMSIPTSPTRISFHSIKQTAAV
T1 sequence (P24387 whole entry): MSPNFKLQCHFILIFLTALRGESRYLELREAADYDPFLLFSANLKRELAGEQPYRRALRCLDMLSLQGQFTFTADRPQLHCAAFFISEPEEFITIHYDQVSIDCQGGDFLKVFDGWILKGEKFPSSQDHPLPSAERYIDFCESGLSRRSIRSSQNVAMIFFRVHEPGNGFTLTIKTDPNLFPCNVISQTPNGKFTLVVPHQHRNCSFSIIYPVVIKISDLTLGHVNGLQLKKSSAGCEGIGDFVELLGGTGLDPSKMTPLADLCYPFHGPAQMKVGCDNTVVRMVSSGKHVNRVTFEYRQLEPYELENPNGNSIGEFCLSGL
The test is described as follows: activators of CRF receptor 2 with binding protein – uHTS hits, confirmation (AID 602473). Type of test: functional. The settings on record: read-out: EC50_Mean.

For test [3], the target named is T1, Corticotropin-releasing factor receptor 2/Corticotropin-releasing factor-binding protein. Nature of the test: Dose Response confirmation of uHTS hits for small molecule antagonists of the CRF-binding protein and CRF-R2 receptor complex. The note with it: read-out: IC50_Mean. Type of test: functional.
For test [4], the target named is Prothrombin (Homo sapiens, UniProt P00734). The test is described as follows: Thrombin 1536 HTS Dose Response Confirmation. [Related pubchem assays: 1046 (Thrombin 1536 HTS; hits were confirmed in this assay)]. Type of test: functional.
The subject of test [5] is HEK293. Nature of the test: membrane integrity loss in HEK cells – cell-based, fluorescence, cytotoxicity control for IDE activator project, dose response (AID 588440).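 Further: cytotoxicity by LDH release measuring loss of membrane integrity.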 The settings on record: Homo sapiens. It is filed as functional.
Test [6] deals with T2, Insulin-degrading enzyme (Homo sapiens, UniProt P14735).
T2 sequence (P14735 whole entry): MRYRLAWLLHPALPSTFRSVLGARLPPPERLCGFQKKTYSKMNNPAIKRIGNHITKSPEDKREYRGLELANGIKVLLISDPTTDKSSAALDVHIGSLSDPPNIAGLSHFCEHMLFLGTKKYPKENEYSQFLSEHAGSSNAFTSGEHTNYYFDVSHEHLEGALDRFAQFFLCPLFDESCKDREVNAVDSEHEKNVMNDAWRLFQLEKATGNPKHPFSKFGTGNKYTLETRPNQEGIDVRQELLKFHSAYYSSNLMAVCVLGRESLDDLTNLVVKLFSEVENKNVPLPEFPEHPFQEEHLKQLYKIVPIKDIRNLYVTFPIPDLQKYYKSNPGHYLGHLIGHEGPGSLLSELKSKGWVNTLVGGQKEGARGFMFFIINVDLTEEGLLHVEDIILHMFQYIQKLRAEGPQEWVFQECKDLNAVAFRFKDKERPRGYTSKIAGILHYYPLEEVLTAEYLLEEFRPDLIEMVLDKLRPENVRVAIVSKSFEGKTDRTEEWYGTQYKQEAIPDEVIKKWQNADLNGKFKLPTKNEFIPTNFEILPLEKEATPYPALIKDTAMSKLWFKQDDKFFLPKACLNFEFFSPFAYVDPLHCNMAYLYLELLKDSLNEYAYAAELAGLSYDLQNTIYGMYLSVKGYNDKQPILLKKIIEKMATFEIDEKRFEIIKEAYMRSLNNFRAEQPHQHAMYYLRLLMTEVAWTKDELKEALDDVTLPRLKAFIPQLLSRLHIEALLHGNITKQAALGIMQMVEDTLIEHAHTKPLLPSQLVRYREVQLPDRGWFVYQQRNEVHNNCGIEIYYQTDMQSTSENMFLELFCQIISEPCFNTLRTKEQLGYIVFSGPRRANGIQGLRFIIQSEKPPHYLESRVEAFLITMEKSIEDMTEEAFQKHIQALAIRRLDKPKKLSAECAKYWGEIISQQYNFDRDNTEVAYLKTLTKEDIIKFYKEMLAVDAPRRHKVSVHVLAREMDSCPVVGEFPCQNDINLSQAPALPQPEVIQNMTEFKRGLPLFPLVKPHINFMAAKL
Nature of the test: recombinant IDE activation, cell-free – biochemical, fluorescence polarization, counter-screen for IDE activator project, dose response (AID 588681). In general terms: Fluorescence polarisation rises when a labelled molecule tumbles more slowly, as on binding a larger partner.

Test [7] concerns the target T2, Insulin-degrading enzyme. The test is described as follows: cellular IDE activation of Abeta substrate cleavage – fluorescence polarization, HEK cells, dose response (AID 588439). Type of test: functional, cell-based.
The subject of test [8] is HEK293. Nature of the test: optical interference in Abeta FP readout, dose response, artefact control for IDE activator project, biochemical, fluorescence polarization (AID 588442). Type of test: functional, cell-based. The settings on record: Homo sapiens.
Test [9] concerns the target T3, DNA repair protein RAD52 homolog (Homo sapiens, UniProt P43351).
T3 sequence (P43351 whole entry): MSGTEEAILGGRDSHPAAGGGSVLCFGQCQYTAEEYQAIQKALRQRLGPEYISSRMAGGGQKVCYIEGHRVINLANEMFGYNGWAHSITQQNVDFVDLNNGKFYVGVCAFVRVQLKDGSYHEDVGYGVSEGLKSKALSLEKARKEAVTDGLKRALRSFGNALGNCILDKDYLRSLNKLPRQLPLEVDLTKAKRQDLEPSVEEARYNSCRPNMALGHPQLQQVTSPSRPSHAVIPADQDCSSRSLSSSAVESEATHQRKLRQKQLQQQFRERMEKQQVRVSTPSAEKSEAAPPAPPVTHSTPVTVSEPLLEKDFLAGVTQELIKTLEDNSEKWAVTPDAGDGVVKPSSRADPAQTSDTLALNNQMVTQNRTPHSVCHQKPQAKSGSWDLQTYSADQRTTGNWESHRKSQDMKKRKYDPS
Type of test: functional, biochemical.

Test [10] concerns the target T4, Ubiquitin-conjugating enzyme E2 N (Homo sapiens, UniProt P61088).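 Further: Dose-response confirmation in a TR-FRET assay detecting UBC13-driven polyubiquitin chain formation, inhibition measured.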
T4 sequence (P61088 whole entry): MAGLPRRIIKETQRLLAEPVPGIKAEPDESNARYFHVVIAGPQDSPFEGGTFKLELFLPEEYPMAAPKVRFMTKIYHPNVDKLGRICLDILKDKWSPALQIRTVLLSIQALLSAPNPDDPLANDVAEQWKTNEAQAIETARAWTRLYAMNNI
Type of test: functional.

Test [11] has as its target Eukaryotic translation initiation factor 4E (Mus musculus, UniProt P63073). Nature of the test: blockers of eIF4G binding by eIF4E – biochemical, TR-FRET, dose response (AID 855).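 Further: potency for disrupting eIF4E binding to eIF4GI seen as loss of FRET.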 It is filed as functional. (In TR-FRET formats the signal depends on donor and acceptor labels being close together.)
Test [12] concerns the target Paired box protein Pax-8 (Homo sapiens, UniProt Q06710). Nature of the test: PAX8 transcriptional activity inhibition in RMG-I – RMG-I cells, luciferase, cherry-pick, dose response (AID 687027).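 Further: luciferase reporter driven by Pax8 target thyroperoxidase promoter measured by SteadyGlo luminescence.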 It is filed as functional, cell-based.
A short description of test [13]: OVCAR-3 cell viability loss – plate reader, dry powder samples, PAX8 inhibitor project, dose response (AID 743044). It is filed as functional, cell-based.
Test [14] in a line: general cell-killing toxicity readout – plate reader, dry powder samples, cytotoxicity control for PAX8 inhibitor project, dose response (AID 743021). Type of test: functional, cell-based.
Test [15] can be described thus: blockers of HIV-1 envelope-mediated cell-cell fusion – cherry-pick, dose response (AID 652057). It is filed as functional, cell-based.
Test [16] in a line: HIV-1 AD8 envelope cell-cell fusion blockers – cherry-pick, dose response (AID 652062).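 Further: luciferase signal from cell-cell fusion driven by HIV-1 clade B AD8 Env; potency is for inhibitors of fusion seen as a drop in luminescence.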 Type of test: functional, cell-based.
A short description of test [17]: blockers of HIV-1 ZM109 envelope-driven cell-cell fusion – HeLa effector, CEM target cells, luciferase, cherry-pick, dose response (AID 652058).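 Further: luciferase signal from HIV-1 Env mediated cell-cell fusion of effector and target cells.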 It is filed as functional, cell-based.

Structures are written as SMILES. Activity calls are given as the source filed them.

Chain of Paired box protein Pax-8 (Q06710 whole entry): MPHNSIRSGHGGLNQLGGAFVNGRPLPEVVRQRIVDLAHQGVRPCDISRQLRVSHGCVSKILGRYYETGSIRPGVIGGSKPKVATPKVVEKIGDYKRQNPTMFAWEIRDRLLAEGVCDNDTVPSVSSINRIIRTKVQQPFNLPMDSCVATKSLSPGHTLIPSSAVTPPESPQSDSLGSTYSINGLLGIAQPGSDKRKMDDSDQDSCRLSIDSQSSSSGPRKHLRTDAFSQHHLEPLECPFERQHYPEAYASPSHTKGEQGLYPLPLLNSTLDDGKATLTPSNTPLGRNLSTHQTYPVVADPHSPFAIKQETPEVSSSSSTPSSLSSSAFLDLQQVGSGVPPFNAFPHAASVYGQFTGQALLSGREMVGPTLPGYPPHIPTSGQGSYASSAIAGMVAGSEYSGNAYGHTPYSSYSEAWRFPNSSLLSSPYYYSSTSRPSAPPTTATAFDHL
Chain of Eukaryotic translation initiation factor 4E (P63073 whole entry): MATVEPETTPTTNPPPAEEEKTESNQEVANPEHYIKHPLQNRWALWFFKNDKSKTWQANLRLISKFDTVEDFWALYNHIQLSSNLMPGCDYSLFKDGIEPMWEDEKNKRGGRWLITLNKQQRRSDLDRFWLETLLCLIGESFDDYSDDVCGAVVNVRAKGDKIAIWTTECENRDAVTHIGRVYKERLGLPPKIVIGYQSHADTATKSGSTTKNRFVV

With `CN(C)c1ccc(C=C2C(=O)OC(C)(C)OC2=O)cc1`, the IC50 in [1] was 7.91 µM (active); in [3], 5.16 µM (active). Besides, the EC50 in [2] is > 53 µM (inactive).
As for `O=C(COC(=O)CCC(=O)c1cccs1)Nc1ccccc1[N+](=O)[O-]`, in [4], the IC50 was 6.93 µM (active).
Take `Nc1cc(N)nc(SCCOc2ccccc2)n1`: the IC50 in test [5] is > 89.2 µM (inactive). The EC50 in [6] was > 54.7 µM (inactive); in test [7], > 54.7 µM (inactive); in [8], > 55.9 µM (inactive).
`COc1ccc(N2C(=O)/C(=C/Nc3ccccc3)c3ccccc3C2=O)cc1`: the IC50 in [4] is reported as > 50 µM (not active).
For orientation: AC50 means the midpoint of the concentration-response curve, whichever way the signal moves. With `ClCCN1CCN(c2ccnc3cc(Cl)ccc23)CC1`, in test [9], the AC50 was 17.2 µM (active). In addition, the IC50 in [10] was > 20 µM (inactive).
As for `CC(NC(=O)CN(C1CCCCC1)S(C)(=O)=O)c1ccccc1` (configuration not stated), the IC50 in test [4] is listed as > 50 µM (not active).
As to `O=c1[nH]nc(SCc2nnc(-c3ccc([N+](=O)[O-])cc3)o2)n1C1CCCCC1`, the IC50 in test [4] was 4.04 µM (active).
For `CC(=O)Nc1ccc(Nc2nc3ccccc3nc2NS(=O)(=O)c2ccc(Cl)c([N+](=O)[O-])c2)cc1`, the IC50 in [1] is 10.2 µM (active); in test [3], 6.14 µM (active). Besides, the EC50 in test [2] was > 53 µM (inactive).
As to `CCCCC[C@@H]1C=C(C(=O)O)[C@H](c2cccc(C)c2)N1S(=O)(=O)c1ccc(C)cc1`, the IC50 in test [1] was > 20 µM (inactive); in test [3], 36.6 µM (active). Further, in [2], the EC50 was 40.7 µM (active).
In the case of `CN(c1ccccc1)S(=O)(=O)c1cccc(NC(=O)COc2cccc([N+](=O)[O-])c2)c1`, the IC50 was > 20 µM (inactive) in [1], > 89.2 µM (inactive) in [5] and > 23.6 µM (inactive) in test [3]. For the same compound, the EC50 in test [2] was > 53 µM (inactive); in [6] it was > 54.7 µM (inactive); in test [7], > 54.7 µM (inactive); in test [8] it was > 55.9 µM (inactive).
Regarding `COc1ccc(OC)c(C(=O)COC(=O)CN2C(=O)NC3(CCCCC3C)C2=O)c1` (configuration not stated), the IC50 in [5] is > 89.2 µM (inactive). Also, the EC50 was > 54.7 µM (inactive) in [6], > 54.7 µM (inactive) in test [7] and > 55.9 µM (inactive) in test [8].
Consider `CO/N=C/C(C#N)c1ncc(C(F)(F)F)cc1Cl` (configuration not stated), for which the IC50 in test [11] was > 64 µM (inactive); in test [1] it was 6.73 µM (active); in test [3] it was 4.92 µM (active). In addition, in [2], the EC50 is 5.81 µM (active).
As for `C[C@@H]1CN([C@H](C)CO)C(=O)c2cc(NC(=O)Nc3ccc(C(F)(F)F)cc3)ccc2O[C@@H](C)CCCCO[C@@H]1CN(C)C(=O)NC1CCCCC1`, the AC50 is 4.46 µM (active) in test [12], 35.7 µM (active) in test [13] and 2.66 µM (active) in test [14].
Take `C[C@@H]1CN([C@@H](C)CO)C(=O)Cc2cc(NS(=O)(=O)c3cccs3)ccc2O[C@H]1CN(C)Cc1ccc(C(F)(F)F)cc1`: the AC50 in test [12] is 5.33 µM (active); in [13] it was 32.8 µM (active); in test [15], 10.1 µM (active); in test [16], 25.8 µM (active); in test [17], 1.39 µM (active).
Turning to `Cc1ccc(S(=O)(=O)Nc2ccc3c(c2)CC(=O)N([C@H](C)CO)C[C@H](C)[C@H](CN(C)S(=O)(=O)c2ccc(F)cc2)O3)cc1`, the AC50 in [12] was 25.3 µM (active); in test [13], 59.2 µM (active); in [15] it was 5.23 µM (active); in [16] it was 4.36 µM (active); in test [17], 5.04 µM (active).
